Our source for the EC50 values is US20250136606A1, “MODULATORS OF TRPML, THEIR COMPOSITIONS AND METHODS OF USE” (Caraway Therapeutics, Inc., priority 2021, published 2025).

pEC50: −log10 of the molar value.

What all share (format): cell-based
Common to all, as to details: fluorescent calcium assay

In one assay the target is T1, TRPML2 (Homo sapiens, UniProt Q8IZK6).
T1 construct: expressed in transfected cells
T1 sequence (Q8IZK6 1-566): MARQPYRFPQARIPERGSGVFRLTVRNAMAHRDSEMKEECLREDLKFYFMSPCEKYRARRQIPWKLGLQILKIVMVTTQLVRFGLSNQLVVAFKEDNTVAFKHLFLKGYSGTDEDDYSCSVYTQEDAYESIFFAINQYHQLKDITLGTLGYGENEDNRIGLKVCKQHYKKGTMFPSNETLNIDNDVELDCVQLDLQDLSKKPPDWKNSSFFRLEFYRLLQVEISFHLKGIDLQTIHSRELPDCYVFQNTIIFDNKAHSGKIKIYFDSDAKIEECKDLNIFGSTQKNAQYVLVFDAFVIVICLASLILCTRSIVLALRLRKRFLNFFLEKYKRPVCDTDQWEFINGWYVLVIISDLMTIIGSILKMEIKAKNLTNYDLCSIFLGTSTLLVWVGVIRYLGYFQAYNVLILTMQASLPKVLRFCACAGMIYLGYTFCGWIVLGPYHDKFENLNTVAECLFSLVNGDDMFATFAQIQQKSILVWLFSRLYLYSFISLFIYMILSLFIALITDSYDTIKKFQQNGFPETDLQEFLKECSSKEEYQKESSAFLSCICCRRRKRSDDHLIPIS
The assay can be described thus: Fluorescent TRPML2 assay (performed as for TRPML1, substituting the TRPML2 subtype). The procedure, abridged:
(§1)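 Doxycycline-induced (0.5 ug/mL) HEK-293 Trex cells stably expressing surface-directed mutant channel were loaded with 1 micromolar Fluo4-AM, resuspended in Ringer's with 10 mM calcium and added to compound plates. Fluorescence (ex 480, em 540 nm) gave percent activity versus on-plate controls; EC50 by non-linear regression.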

In another assay the target is TRPML1 (Homo sapiens, UniProt Q9GZU1). The assay can be described thus: Fluorescent TRPML1 assay (Fluo4-AM calcium fluorescence in doxycycline-induced HEK-293 Trex cells). The procedure, abridged:
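EC50 values come from non-linear regression of percent activity, normalized to on-plate positive and negative controls, with fluorescence read at 480 nm excitation and 540 nm emission. Fluo4-AM-loaded (1 µM) doxycycline-induced HEK-293 Trex cells expressing mutated human TRPML1 were exposed in 10 mM calcium Ringer's to 6 nM–20 µM compound, in triplicate.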

The next assay addresses T2, TRPML3 (Homo sapiens, UniProt Q8TDD5).
T2 construct: expressed in transfected cells
T2 sequence (Q8TDD5 1-553): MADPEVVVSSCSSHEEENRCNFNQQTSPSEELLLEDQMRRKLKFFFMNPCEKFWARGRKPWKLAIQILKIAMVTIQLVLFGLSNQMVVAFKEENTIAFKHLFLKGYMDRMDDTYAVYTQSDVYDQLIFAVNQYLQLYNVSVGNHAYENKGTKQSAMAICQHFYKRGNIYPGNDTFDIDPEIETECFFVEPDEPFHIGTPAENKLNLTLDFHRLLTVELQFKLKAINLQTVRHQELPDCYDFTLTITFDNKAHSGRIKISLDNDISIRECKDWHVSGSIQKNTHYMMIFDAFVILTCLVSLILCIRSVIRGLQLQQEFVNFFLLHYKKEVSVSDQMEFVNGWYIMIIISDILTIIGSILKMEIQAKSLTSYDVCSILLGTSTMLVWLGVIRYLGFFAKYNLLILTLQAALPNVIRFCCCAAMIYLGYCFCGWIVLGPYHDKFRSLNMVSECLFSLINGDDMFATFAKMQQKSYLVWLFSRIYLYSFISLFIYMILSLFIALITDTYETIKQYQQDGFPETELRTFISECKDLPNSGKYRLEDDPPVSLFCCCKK
Briefly: Fluorescent TRPML3 assay (performed as for TRPML1, substituting the TRPML3 subtype). In outline:
as §1

Chain of TRPML1 (Q9GZU1 whole entry L15A/L16A/L577A/L578A, form open): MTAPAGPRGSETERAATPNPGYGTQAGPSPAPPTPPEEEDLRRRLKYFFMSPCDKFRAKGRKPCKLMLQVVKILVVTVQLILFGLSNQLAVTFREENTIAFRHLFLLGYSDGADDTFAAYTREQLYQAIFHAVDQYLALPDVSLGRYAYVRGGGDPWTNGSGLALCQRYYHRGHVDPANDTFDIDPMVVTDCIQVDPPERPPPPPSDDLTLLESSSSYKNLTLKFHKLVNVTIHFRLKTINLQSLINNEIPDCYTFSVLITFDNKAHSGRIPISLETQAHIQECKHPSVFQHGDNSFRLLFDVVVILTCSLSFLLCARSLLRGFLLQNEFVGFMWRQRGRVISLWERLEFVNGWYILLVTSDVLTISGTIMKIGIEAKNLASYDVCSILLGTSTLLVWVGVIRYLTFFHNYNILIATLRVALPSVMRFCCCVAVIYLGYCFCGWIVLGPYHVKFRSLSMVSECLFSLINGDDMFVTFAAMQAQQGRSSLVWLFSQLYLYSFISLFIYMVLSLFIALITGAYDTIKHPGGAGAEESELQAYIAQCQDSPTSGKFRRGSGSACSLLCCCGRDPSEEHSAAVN

Turning to `C[C@H]1CN(C(=O)OC(C)(C)C)CCN1c1ncnc2c1c(-c1ccccc1F)cn2-c1cc(C#N)ccn1` [Compound 268, tert-butyl (S)-4-(7-(4-cyanopyridin-2-yl)-5-(2-fluorophenyl)-7H-pyrrolo[2,3-d]pyrimidin-4-yl)-3-methylpiperazine-1-carboxylate], the pEC50 on TRPML2, at TRPML1 and at TRPML3 was greater than 7.00 in each case.
On to `CCc1nccnc1-c1cn(-c2cccc(Cl)c2)c2ncnc(N3CCN(C(=O)OC(C)(C)C)C[C@@H]3C)c12` [Compound 271, tert-butyl (S)-4-(7-(3-chlorophenyl)-5-(3-ethylpyrazin-2-yl)-7H-pyrrolo[2,3-d]pyrimidin-4-yl)-3-methylpiperazine-1-carboxylate], for which the pEC50 at TRPML2, at TRPML1 and on TRPML3 was 6.30 to 7.00 in each case.
With `COc1cccc(-n2cc(-c3cccnc3)c3c(N4CCN(C(=O)OC(C)(C)C)C[C@@H]4C)ncnc32)c1` [Compound 272, tert-butyl-(S)-4-(7-(3-methoxyphenyl)-5-(pyridin-3-yl)-7H-pyrrolo[2,3-d]pyrimidin-4-yl)-3-methylpiperazine-1-carboxylate], the pEC50 was 5.70 to 6.30 on TRPML2, 6.30 to 7.00 on TRPML1 and 6.30 to 7.00 at TRPML3.
`C[C@H]1CN(C(=O)OC(C)(C)C)CCN1c1ncnc2c1c(-c1nccnc1C(F)(F)F)cn2-c1cccc(Cl)c1` [Compound 273, tert-butyl (S)-4-(7-(3-chlorophenyl)-5-(3-(trifluoromethyl)pyrazin-2-yl)-7H-pyrrolo[2,3-d]pyrimidin-4-yl)-3-methylpiperazine-1-carboxylate]: the pEC50 at TRPML2 is 5.70 to 6.30; at TRPML1, 6.30 to 7.00; at TRPML3 it was 6.30 to 7.00.
As to `C[C@H]1CN(C(=O)OC(C)(C)C)CCN1c1ncnc2c1c(-c1nccnc1C#N)cn2-c1cccc(Cl)c1` [Compound 274, tert-butyl (S)-4-(7-(3-chlorophenyl)-5-(3-cyanopyrazin-2-yl)-7H-pyrrolo[2,3-d]pyrimidin-4-yl)-3-methylpiperazine-1-carboxylate], the pEC50 at TRPML2 is 5.70 to 6.30; at TRPML1 it was 6.30 to 7.00; at TRPML3 it was 6.30 to 7.00.
`COC(=O)c1nccnc1-c1cn(-c2cccc(Cl)c2)c2ncnc(N3CCN(C(=O)OC(C)(C)C)C[C@@H]3C)c12` [Compound 275, methyl (S)-3-(4-(4-(tert-butoxycarbonyl)-2-methylpiperazin-1-yl)-7-(3-chlorophenyl)-7H-pyrrolo[2,3-d]pyrimidin-5-yl)pyrazine-2-carboxylate]: the pEC50 is less than 5.70 at TRPML2, less than 5.70 at TRPML1 and 5.70 to 6.30 on TRPML3.
Consider `C[C@@H]1CN(c2ncnc3c2c(N2CCC[C@H]2C)cn3-c2cccc(Cl)c2)CCN1C(=O)OC(C)(C)C` [Compound 299, tert-butyl (R)-4-(7-(3-chlorophenyl)-5-((R)-2-methylpyrrolidin-1-yl)-7H-pyrrolo[2,3-d]pyrimidin-4-yl)-2-methylpiperazine-1-carboxylate], for which the pEC50 was less than 5.70 on TRPML2, 5.70 to 6.30 at TRPML1 and 5.70 to 6.30 at TRPML3.
As to `C[C@@H]1CN(c2ncnc3c2c(N2CCC(F)(F)C2)cn3-c2cccc(Cl)c2)CCN1C(=O)OC(C)(C)C` [Compound 300, tert-butyl (R)-4-(7-(3-chlorophenyl)-5-(3,3-difluoropyrrolidin-1-yl)-7H-pyrrolo[2,3-d]pyrimidin-4-yl)-2-methylpiperazine-1-carboxylate], the pEC50 at TRPML2 was 5.70 to 6.30; at TRPML1, greater than 7.00; on TRPML3, greater than 7.00.
On to `COc1cc(-n2cc(C3CC3)c3c(N4CCN(C(=O)OC(C)(C)C)C[C@@H]4C)ncnc32)cc(F)c1F` [Compound 301, tert-butyl (S)-4-(5-cyclopropyl-7-(3,4-difluoro-5-methoxyphenyl)-7H-pyrrolo[2,3-d]pyrimidin-4-yl)-3-methylpiperazine-1-carboxylate], for which the pEC50 at TRPML2 was 5.70 to 6.30; on TRPML1, 6.30 to 7.00; on TRPML3, 6.30 to 7.00.
Turning to `COc1cc(C#N)cc(-n2cc(C3CC3)c3c(N4CCN(C(=O)OC(C)(C)C)C[C@@H]4C)ncnc32)c1` [Compound 302, tert-butyl (S)-4-(7-(3-cyano-5-methoxyphenyl)-5-cyclopropyl-7H-pyrrolo[2,3-d]pyrimidin-4-yl)-3-methylpiperazine-1-carboxylate], the values for the pEC50 at TRPML2, at TRPML1 and on TRPML3 were less than 5.70, 5.70 to 6.30 and 6.30 to 7.00, respectively.
In the same order, the values of `C[C@H]1CN(C(=O)OC(C)(C)C)CCN1c1ncnc2c1c(C1CC1)cn2-c1cc(C#N)cc(OC(F)(F)F)c1` [Compound 303, tert-butyl (S)-4-(7-(3-cyano-5-(trifluoromethoxy)phenyl)-5-cyclopropyl-7H-pyrrolo[2,3-d]pyrimidin-4-yl)-3-methylpiperazine-1-carboxylate] are 5.70 to 6.30, 6.30 to 7.00 and 6.30 to 7.00.
For `Cc1nccnc1-c1cn(-c2cccc(OC(F)(F)F)c2)c2ncnc(N3CCN(C(=O)OC(C)(C)C)C[C@@H]3C)c12` [Compound 304, tert-butyl (S)-3-methyl-4-(5-(3-methylpyrazin-2-yl)-7-(3-(trifluoromethoxy)phenyl)-7H-pyrrolo[2,3-d]pyrimidin-4-yl)piperazine-1-carboxylate] the same measures were 5.70 to 6.30, 5.70 to 6.30 and 6.30 to 7.00.
For `Cc1nccnc1-c1cn(-c2cc(F)c(F)c(F)c2)c2ncnc(N3CCN(C(=O)OC(C)(C)C)C[C@@H]3C)c12` [Compound 305, tert-butyl (S)-3-methyl-4-(5-(3-methylpyrazin-2-yl)-7-(3,4,5-trifluorophenyl)-7H-pyrrolo[2,3-d]pyrimidin-4-yl)piperazine-1-carboxylate] the same measures were less than 5.70, 5.70 to 6.30 and 6.30 to 7.00.
Regarding `Cc1ccc(Cl)cc1-n1cc(N2CCCC2)c2c(N3CCN(C(=O)OC(C)(C)C)C[C@@H]3C)ncnc21` [Compound 306, tert-butyl (S)-4-(7-(5-chloro-2-methylphenyl)-5-(pyrrolidin-1-yl)-7H-pyrrolo[2,3-d]pyrimidin-4-yl)-3-methylpiperazine-1-carboxylate], the pEC50 at TRPML2 is 5.70 to 6.30; on TRPML1 it was 5.70 to 6.30; at TRPML3 it was 6.30 to 7.00.
`C[C@H]1CN(C(=O)OC(C)(C)C)CCN1c1ncnc2c1c(N1CCC[C@@H]1CO)cn2-c1cc(F)cc(F)c1` [Compound 307, tert-butyl (S)-4-(7-(3,5-difluorophenyl)-5-((R)-2-(hydroxymethyl)pyrrolidin-1-yl)-7H-pyrrolo[2,3-d]pyrimidin-4-yl)-3-methylpiperazine-1-carboxylate]: the pEC50 on TRPML2 is 5.70 to 6.30; at TRPML1, 5.70 to 6.30; at TRPML3 it was greater than 7.00.
Take `C[C@H]1CN(C(=O)OC(C)(C)C)CCN1c1ncnc2c1c(N1CCC(F)(F)C1)cn2-c1cccc(Cl)c1` [Compound 308, tert-butyl (S)-4-(7-(3-chlorophenyl)-5-(3,3-difluoropyrrolidin-1-yl)-7H-pyrrolo[2,3-d]pyrimidin-4-yl)-3-methylpiperazine-1-carboxylate]: the pEC50 on TRPML2, at TRPML1 and on TRPML3 was greater than 7.00 in each case.

The pEC50 is the EC50 on a negative log10 scale, so that one unit is a factor of ten.
